From patent EP0315434A2, “Pyridoxal hydrazone derivatives their production and use and pharmaceutical compositions containing the same” (YISSUM RESEARCH DEVELOPMENT COMPANY OF THE HEBREW …, priority 1987, dated 1989)
Read-outs that look alike come from different tables or passages of the source.

Legend:
[1] = Mobilization of iron from hepatic parenchymal stores in hypertransfused rats labelled with ⁵⁹Fe-ferritin; format: in vivo; details: for Ferritin-⁵⁹Fe distribution in % Blood / Ferritin-⁵⁹Fe distribution in % Feces / Ferritin-⁵⁹Fe distribution in % Liver / Ferritin-⁵⁹Fe distribution in % Residual / Ferritin-⁵⁹Fe distribution in % Spleen / Ferritin-⁵⁹Fe distribution in % Urine: hypertransfused rats, 40 mg per animal, single subcutaneous injection
Description: In each case, 40 mg of each compound was administered per animal in a single subcutaneous injection.
In vivo studies of chelating efficiency were performed in two models: (a) normal rats injected i.p. with 10 mg of either desferrioxamine B (DF), PIH of the prior art, PPH of Example 4 or PPHE from Example 5 labelled in vitro with ⁵⁹Fe; and (b) hypertransfused rats receiving twice 4 ml/100gm packed RBC intravenously 5 and 3 days prior to study (hematocrit 68%) and labelled with ⁵⁹Fe-ferritin injected i.v. 24h prior to iron chelating therapy as described previously. Drugs to be tested in the ⁵⁹Fe-ferritin model were given either by i.p. injection or by gastric tube at a dose of 40 mg per animal. Radioiron excretion and organ distribution were determined after 4 days
The radioactivity of spleen, weighed portions of the liver, and 1 ml samples of blood were determined in an automatic well type scintillation counter (Packard Autogamma Model 5360 Scintillation spectrometer). Spleen and kidney were counted as whole organs.
Whole body counts were performed in a small animal counter (Packard Model 446 Armac) scintillation detector. The excretion of radioiron following ⁵⁹Fe labelling was measured in animals confined to solitary metabolic cages with stainless steel grid bottoms, and stool and urine were collected separately.

[2] = Fate of ⁵⁹Fe tracer incubated with chelator and injected into normal rats (radioiron distribution and excretion); format: in vivo; details: for Radioiron Distribution in % Feces / Radioiron Distribution in % Total excretion / Radioiron Distribution in % Urine / Radioiron Distribution in % Blood / Radioiron Distribution in % Liver / Radioiron Distribution in % Spleen: 10 mg chelator with ⁵⁹Fe, subcutaneous, normal rats; for Radioiron Distribution in % Feces / Radioiron Distribution in % Total excretion / Radioiron Distribution in % Urine: cumulative within 4 days; for Radioiron Distribution in % Blood / Radioiron Distribution in % Liver / Radioiron Distribution in % Spleen: within 4 days; for TOTAL EXCRETION OF RADIO-IRON IN RATS %: as in Table 1
Description: Table 1 describes the fate of ⁵⁹Fe tracer reincubated […] with 10 mg of some of the above iron chelators and then injected subcutaneously to groups of 4 normal rats. Numbers represent mean cumulative radioiron excretion within 4 days of injection. For comparison, spontaneous excretion of radioiron and the excretion of desferrioxamine (DF) bound radioiron are also given. […]
Spleen and kidney were counted as whole organs.
The excretion of radioiron following ⁵⁹Fe labelling was measured in animals confined to solitary metabolic cages with stainless steel grid bottoms, and stool and urine were collected separately.

[3] = target: T1, Ribonucleoside Diphosphate Reductase (RdR) (Homo sapiens, UniProt P31350); test: Inhibition of ribonucleotide diphosphate reductase; format: biochemical
T1 sequence (P31350 1-389): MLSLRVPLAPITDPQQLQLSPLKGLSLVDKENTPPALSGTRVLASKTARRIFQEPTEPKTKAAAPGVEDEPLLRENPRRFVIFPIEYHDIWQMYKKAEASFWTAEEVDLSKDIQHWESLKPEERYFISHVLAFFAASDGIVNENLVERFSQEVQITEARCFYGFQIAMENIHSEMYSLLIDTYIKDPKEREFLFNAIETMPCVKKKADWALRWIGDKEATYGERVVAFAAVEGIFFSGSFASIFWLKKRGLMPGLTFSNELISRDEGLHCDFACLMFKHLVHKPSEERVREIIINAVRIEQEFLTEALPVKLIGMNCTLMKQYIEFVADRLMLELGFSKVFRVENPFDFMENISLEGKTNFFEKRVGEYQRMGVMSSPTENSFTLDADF

[4] = test system: chloroquine-resistant strain of P. falciparum (FCR-3)
Description: Cultures of a chloroquine-resistant strain of P. falciparum (FCR-3), cultivated in human erythrocytes (a technique widely used at the Kuvin Centre, Hebrew University Hadassah Medical School), were suspended in solutions containing chelators and then cultured for 3 days. Growth of parasites was determined by either slide counts or by incorporation of ³H-hypoxanthine. The parasite growth was monitored by microscopic slide counts. […]

Leukemia P 388 = Leukemia P 388 survival in mice; format: in vivo, Mice: female B6D2F1; details: days 1, 2, 3, 4
Lewis lung carcinoma = test: Inhibition of Lewis lung carcinoma (primary tumor and metastases); format: in vivo
Description: It becomes possible also to look at the ability of one of the compounds (Ex. 1) to inhibit the growth of Lewis lung carcinoma. With a view to possible mechanisms we employed the well-established anti-cancer antibiotics (a) bleomycin, and (b) daunorubicin, as reference compounds.

[5] = Iron chelation in H₂O (spectrophotometric, apparent K), ferrous ions; format: physicochemical; details: ferrous versus ferric
[6] = molar concentration 2 x 10⁻⁶, cultured 3 days

1-[N-ethoxycarbonylmethyl pyridoxylidenium] 2-[2′-pyridyl] hydrazine bromide [Ex. 3]
Ferritin-⁵⁹Fe distribution in % Blood [1]: 3.8±0.2% | Ferritin-⁵⁹Fe distribution in % Feces [1]: 57.6±2.9% | Ferritin-⁵⁹Fe distribution in % Liver [1]: 36.5±1.2% | Ferritin-⁵⁹Fe distribution in % Residual [1]: 0% | Ferritin-⁵⁹Fe distribution in % Spleen [1]: 0.4±0.1% | Ferritin-⁵⁹Fe distribution in % Urine [1]: 1.7±0.1% | efficiency as compared to the parenteral administration of the same drug ([1]; oral 40 mg versus parenteral): 31% | effectiveness relative to DF on a weight per weight basis ([1]; rat, in vivo): 3 times | Radioiron Distribution in % Feces [2]: 57.2±1.1% | Radioiron Distribution in % Total excretion [2]: 86.7±1.7% | Radioiron Distribution in % Urine [2]: 29.5±0.6% | Radioiron Distribution in % Blood [2]: 6.4±0.4% | Radioiron Distribution in % Liver [2]: 3.3±0.4% | Radioiron Distribution in % Spleen [2]: 0.16±0.04% | TOTAL EXCRETION OF RADIO-IRON IN RATS % [2]: 86.7± 1.7% | Inhibition of Ribonucleoside Diphosphate Reductase (RdR) % ([3]; dose 10 x 10⁻⁵ M): none | INHIBITION OF GROWTH OF DRUG-RESISTANT STRAIN OF P. falciparum % INHIBITION [4, 6]: 90.9%

1-[N-methylpyridoxylidenium]-2-[methyl pyridiniumn] hydrazine hydroxido iodide [Ex. 2]
Ferritin-⁵⁹Fe distribution in % Blood [1]: 3.0±0.1% | Ferritin-⁵⁹Fe distribution in % Feces [1]: 58.9±3.0% | Ferritin-⁵⁹Fe distribution in % Liver [1]: 35.5±1.7% | Ferritin-⁵⁹Fe distribution in % Residual [1]: 0% | Ferritin-⁵⁹Fe distribution in % Spleen [1]: 0.4±0.1% | Ferritin-⁵⁹Fe distribution in % Urine [1]: 2.2±0.1% | Radioiron Distribution in % Feces [2]: 27.0±2.2% | Radioiron Distribution in % Total excretion [2]: 66.0±5.3% | Radioiron Distribution in % Urine [2]: 39.0±3.1% | Radioiron Distribution in % Blood [2]: 13.3±2.3% | Radioiron Distribution in % Liver [2]: 6.8±0.4% | Radioiron Distribution in % Spleen [2]: 0.51±0.02%

Cc1c(O)c(C=NNC(=O)c2cc[n+](C)cc2)c(CO)c[n+]1C.[I-].[I-] [Comparative Compound B, 1-[N-methylpyridoxylidenium]-2-[N′-isonicotinoylium] hydrazine dimethiodide, reference compound]
Radioiron Distribution in % Feces [2]: 8.6±0.3% | Radioiron Distribution in % Total excretion [2]: 39.2±1.6% | Radioiron Distribution in % Urine [2]: 30.6±1.12% | Radioiron Distribution in % Blood [2]: 25.1±2.2% | Radioiron Distribution in % Liver [2]: 8.2±0.8% | Radioiron Distribution in % Spleen [2]: 0.36±0.03%

COc1cccc2c1C(=O)c1c(O)c3c(c(O)c1C2=O)C[C@@](O)(C(C)=O)C[C@@H]3O[C@H]1C[C@H](N)[C@H](O)[C@H](C)O1 [Daunorubicin, daunorubicin, reference compound]
Survivors on Day 20 (Leukemia P 388; 1 mg/kg i.p.): 0/10 | Activity T/C x 100 (Leukemia P 388; 1 mg/kg i.p., mean survival time treated / controls): 154

Cc1ncc(CO)c(C=NNc2ccccn2)c1O [Ex. 1]
Inhibition of Lewis Carcinoma Metastases % (Lewis lung carcinoma; dose 25 mg/kg): 41% | Inhibition of Lewis Carcinoma Primary Tumor % (Lewis lung carcinoma; dose 25 mg/kg): 0% | TOTAL EXCRETION OF RADIO-IRON IN RATS % [2]: 34.2% | Activity T/C x 100 (Leukemia P 388; 25 mg/kg i.p.): 105 | Bodyweights Day 7-Day (g) (Leukemia P 388; 25 mg/kg i.p.): +2.6 g | Survivors on Day 20 (Leukemia P 388; 25 mg/kg i.p.): 0/5 | Activity T/C x 100 (Leukemia P 388; 37.5 mg/kg i.p.): 110 | Bodyweights Day 7-Day (g) (Leukemia P 388; 37.5 mg/kg i.p.): +0.2 g | Survivors on Day 20 (Leukemia P 388; 37.5 mg/kg i.p.): 0/5 | Bodyweights Day 7-Day (g) (Leukemia P 388; 50 mg/kg i.p.): +0.8 g | Survivors on Day 20 (Leukemia P 388; 50 mg/kg i.p.): 0/5 | Activity T/C x 100 (Leukemia P 388; 50 mg/kg i.p., P<0.05 (Mann-Whitney Test)): 126(xxx) | Activity T/C x 100 (Leukemia P 388; 75 mg/kg i.p.): Toxic^(xx) | Bodyweights Day 7-Day (Leukemia P 388; 75 mg/kg i.p.): -0.6 g | Survivors on Day 20 (Leukemia P 388; 75 mg/kg i.p.): 0/5 | Inhibition of Ribonucleoside Diphosphate Reductase (RdR) % ([3]; dose 6.7 x 10⁻⁵ M (20 µg/ml)): 72% | INHIBITION OF GROWTH OF DRUG-RESISTANT STRAIN OF P. falciparum % INHIBITION [4, 6]: 93.4%

Cc1ncc(CO)c(C=NNc2ncccn2)c1O [Ex. 4]
Inhibition of Ribonucleoside Diphosphate Reductase (RdR) % ([3]; dose 1 x 10⁻⁵ M): 30% | Inhibition of Ribonucleoside Diphosphate Reductase (RdR) % ([3]; dose 10 x 10⁻⁵ M): 40% | Inhibition of Ribonucleoside Diphosphate Reductase (RdR) % ([3]; dose 100 x 10⁻⁵ M): 78% | higher affinity for ferrous than for ferric ions [5]: ~30 fold

Cc1ncc(CO)c(C=NNc2cnccn2)c1O [Ex. 6, 1-[2′-pyrazyl]-2-[pyridoxylidene] hydrazine]
Inhibition of Ribonucleoside Diphosphate Reductase (RdR) % ([3]; dose 1 x 10⁻⁵ M): 64% | Inhibition of Ribonucleoside Diphosphate Reductase (RdR) % ([3]; dose 10 x 10⁻⁵ M): 81% | Inhibition of Ribonucleoside Diphosphate Reductase (RdR) % ([3]; dose 100 x 10⁻⁵ M): 83%

Cc1ncc(CO)c(C=NNc2ccccn2)c1O.O=S(=O)([O-])[O-].[Cu+2] [Ex. 7]
INHIBITION OF GROWTH OF DRUG-RESISTANT STRAIN OF P. falciparum % INHIBITION ([4]; molar concentration 1 x 10⁻¹², after 2 hours of exposure): 100 ^(**) %

Cc1ncc(CO)c(C=NNC(=O)c2cc[n+](C)cc2)c1O.[I-] [Ex. A, 1-[pyridoxylidene]-2-[N-methylisonicotinoylium] hydrazine iodide, reference compound]
Radioiron Distribution in % Feces [2]: 22.7±1.1% | Radioiron Distribution in % Total excretion [2]: 26.4±1.3% | Radioiron Distribution in % Urine [2]: 3.7±0.2% | Radioiron Distribution in % Blood [2]: 33.3±2.1% | Radioiron Distribution in % Liver [2]: 12.8±0.2% | Radioiron Distribution in % Spleen [2]: 0.56±0.02% | TOTAL EXCRETION OF RADIO-IRON IN RATS % [2]: 26.4± 1.3% | INHIBITION OF GROWTH OF DRUG-RESISTANT STRAIN OF P. falciparum % INHIBITION ([4]; molar concentration 2 x 10⁻⁵, cultured 3 days): 16.6%

NC(=O)NO [Hydroxyurea, reference compound]
Inhibition of Ribonucleoside Diphosphate Reductase (RdR) % ([3]; dose 1 x 10⁻⁵ M): 15% | Inhibition of Ribonucleoside Diphosphate Reductase (RdR) % ([3]; dose 10 x 10⁻⁵ M): 37% | Inhibition of Ribonucleoside Diphosphate Reductase (RdR) % ([3]; dose 100 x 10⁻⁵ M): 73%

bleomycin [reference compound]
Inhibition of Lewis Carcinoma Metastases % (Lewis lung carcinoma; dose 1.25 mg/kg): 48% | Inhibition of Lewis Carcinoma Primary Tumor % (Lewis lung carcinoma; dose 1.25 mg/kg): 24%
